Assay results published in US8906868B2, “Aminoglycoside derivatives” (Rempex Pharmaceuticals, Inc., priority 2010, dated 2014).
Converted amounts (≈) assume the structure as drawn. Where two headings read alike, the source gives them in different places.

Tests used:
[1] = system: ECM6006 aph(3′)-III; experiment: microbe, parasite or virus in culture; format: cell-based, Escherichia coli; conditions: Escherichia coli
Outline: (§1)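 Strains carrying aminoglycoside-modifying enzymes were tested by CLSI broth microdilution in cation-adjusted Mueller Hinton broth. Final inoculum was 5×10^5 CFU/ml; growth after 18 hours at 35° C was scored at 600 nm.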

[2] = system: ECM6009 aac(3)-II; experiment: microbe, parasite or virus in culture; format: cell-based, Escherichia coli; conditions: Escherichia coli
Outline: as §1

[3] = system: ECM6010 ant(2″)-I; experiment: microbe, parasite or virus in culture; format: cell-based, Escherichia coli; conditions: Escherichia coli
Outline: as §1

[4] = system: ECM6011 aph(3′)-I; experiment: microbe, parasite or virus in culture; format: cell-based, Escherichia coli; conditions: Escherichia coli
Outline: as §1

[5] = system: ECM6003 rmtB; experiment: microbe, parasite or virus in culture; format: cell-based, Escherichia coli; conditions: Escherichia coli
Outline: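 Broth microdilution per CLSI M7-A7 in cation-adjusted Mueller Hinton broth with 2-fold serial dilutions and 5×10^5 CFU/ml inoculum. Incubated 18 hours at 35 °C; MIC read by turbidity at 600 nm and confirmed visually.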

[6] = system: EC1002 aph(3′)-IV; experiment: organism not typed; format: cell-based; conditions: read-out: Compound MIC on Bacterial Strains: EC1002 aph(3′)-IV
Outline: as §1

[7] = system: ACM1006 acc(6′)-Ib; experiment: microbe, parasite or virus in culture; format: cell-based, Acinetobacter baumannii; conditions: Acinetobacter baumannii
Outline: (§2)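 Minimum inhibitory concentration is determined by CLSI broth microdilution in cation-adjusted Mueller Hinton broth, with 18 h incubation at 35° C.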

[8] = system: PAM3072 aac(6′)-II; experiment: microbe, parasite or virus in culture; format: cell-based, Pseudomonas aeruginosa; conditions: Pseudomonas aeruginosa
Outline: as §2

[9] = system: PAM3073 aac(6′)-I; experiment: microbe, parasite or virus in culture; format: cell-based, Pseudomonas aeruginosa; conditions: Pseudomonas aeruginosa
Outline: as §2

[10] = system: Enterobacter cloacae ECLM1000 ATCC 13047; experiment: MIC, representative strains; format: cell-based; conditions: ATCC13047, read-out: MIC Enterobacter cloacae ECLM1000 ATCC 13047
Method: To compare microbiological activity of the test compounds, minimum inhibitory concentrations (MIC.s) were determined. Antibiotic MICs were obtained using the broth microdilution method according to Clinical and Laboratory Standards Institute (CLSI) approved guidelines (Methods for dilution antimicrobial susceptibility tests for bacteria that grow aerobically; approved standard—7th ed. CLSI document M7-A7. Clinical and Laboratory Standards Institute, Wayne, Pa., incorporated herein by reference in its entirety). Antibiotics were dissolved as specified by CLSI (Performance standards for antimicrobial susceptibility testing; Seventeenth informational supplement. CLSI document M100-S17. Clinical and Laboratory Standards Institute, Wayne, Pa., incorporated herein by reference in its entirety), and were serially diluted 2-fold in cation adjusted Mueller Hinton Broth (CaMHB) at 2× concentration. Bacterial inoculums were prepared in CaMHB by suspension of a colony from an agar plate that was prepared the previous day to obtain a final concentration of 5×10^5CFU/ml. The plates were incubated for 18 hours at 35° C. […] MIC.s were determined by reading the turbidity of plate wells using a SpectraMax Plus384 plate reader (Molecular Devices, Sunnyvale, Calif., USA) at 600 nm and were confirmed by visual inspection.

[11] = system: mice; experiment: Acute toxicity in mice (minimal lethal dose); format: in vivo; conditions: IV tail vein, observed 24 hours, lowest dose lethal for at least one mouse
Method: The acute toxicity of 44 was compared to that of 45 in mice. Ascending doses of each compound were administered to mice (n=3) IV through the tail vein. […] Acute toxicity was reported as the minimal lethal dose, or MLD, defined as the lowest dose of a compound that is lethal for at least one mouse.

[12] = Aminoglycoside cytotoxicity in HK-2 cells (Alamar Blue); format: cell-based, Human; conditions: human
Method: (§3) Human kidney cortex proximal tubule cells (HK-2) were purchased from ATCC and maintained according to manufacturer's recommendations in Keratinocyte Serum-Free Media (SFM; Invitrogen), with 0.05 mg/ml bovine pituitary extract and 5 ng/ml of Epidermal growth factor.
(§4) Solutions of aminoglycosides at a concentration of 50 mg/mL (both control and novel test compounds) were prepared in sterile deionized water. Before treatment of cells, the concentrated drug solutions were diluted to the appropriate concentration in Keratinocyte SFM {20, 10, 5, 2.5, 1.25, 0.6, 0.3, and 0 mM}. Pentamidine was used as a positive control.
(§5) HK-2 cells were seeded at 2.5*10^4 cells/well density in 96-well plates in Keratinocyte SFM and placed in a 37° C. tissue culture CO2 incubator. […]. Each treatment was performed in duplicate. […] Drug solutions were aspirated and replaced with 0.1 ml of 5% Alamar Blue (Abd Serotec) cell proliferation reagent in Keratinocyte SFM. Plates were read on a Molecular Devices Gemini EM fluorometer pre-warmed at 37° C. at […]. Plates were read at 0 and 4 hrs, and were incubated at 37° C. in a CO2 incubator in between reads. The fluorescence signal at the 0 h timepoint was subtracted from that at 4 h to account for background fluorescence.
(§6) The cytotoxicity data were reported as the amount of drug producing a 50% decrease in Alamar Blue signal relative to the no drug treatment control.

[13] = system: Human kidney cortex proximal tubule cells (HK-2); experiment: as above; format: cell-based
Method: as §3, §4, §5, §6

[14] = system: Klebsiella pneumonia (ATCC 43816); experiment: MIC, broth microdilution; conditions: Klebsiella pneumoniae
[15] = system: Pseudomonas aeruginosa (ATCC 27853); experiment: MIC, broth microdilution; conditions: Pseudomonas aeruginosa
[16] = read-out: Compound MIC on Bacterial Strains: ECM6006 aph(3′)-III
[17] = read-out: MIC Escherichia coli ECM6006 aph(3′)-III
[18] = read-out: Compound MIC on Bacterial Strains: ECM6009 aac(3)-II
[19] = read-out: MIC Escherichia coli ECM6009 aac(3)-II, aph(3′)
[20] = read-out: Compound MIC on Bacterial Strains: ECM6010 ant(2″)-I
[21] = read-out: MIC Escherichia coli ECM6010 ant(2″)
[22] = read-out: Compound MIC on Bacterial Strains: ECM6011 aph(3′)-I
[23] = read-out: MIC Escherichia coli ECM6011 aph(3′)-I
[24] = Table 3, read-out: Compound MIC on Bacterial Strains: ECM6003 rmtB
[25] = Table 8, read-out: MIC Escherichia coli ECM6003 rmtB
[26] = Table 4, read-out: Compound MIC on Bacterial Strains: Acinetobacter baumannii ACM1006 acc(6′)-Ib
[27] = Table 8, read-out: MIC Acinetobacter baumannii ACM1006 aac(6′)-Ib
[28] = Table 5, read-out: Compound MIC on Bacterial Strains: Pseudomonas aeruginosa PAM3072 aac(6′)-II
[29] = Table 8, read-out: MIC Pseudomonas aeruginosa PAM3072 aac(6′)-II or III
[30] = Table 5, read-out: Compound MIC on Bacterial Strains: Pseudomonas aeruginosa PAM3073 aac(6′)-I
[31] = Table 8, read-out: MIC Pseudomonas aeruginosa PAM3073 aac(6′)-I, wt efflux
[32] = ATCC43816, read-out: Compound MIC on Bacterial Strains: K. pneumonia ATCC 43816
[33] = ATCC43816, read-out: MIC Klebsiella pneumoniae KPM1001 ATCC 43816
[34] = ATCC27853, read-out: Compound MIC on Bacterial Strains: P. aeruginosa ATCC 27853
[35] = ATCC27853, read-out: Compound MIC on Bacterial Strains: Pseudomonas aeruginosa PAM3034 ATCC 27853
[36] = ATCC27853, read-out: MIC Pseudomonas aeruginosa PAM3034 ATCC 27853

SMILES	MIC [1, 16]	MIC [1, 17]	MIC [2, 18]	MIC [2, 19]	MIC [3, 20]	MIC [3, 21]	MIC [4, 22]	MIC [4, 23]	MIC [5, 24]	MIC [5, 25]	MIC [6]	MIC [7, 26]	MIC [7, 27]	MIC [8, 28]	MIC [8, 29]	MIC [9, 30]	MIC [9, 31]	MIC [10]	minimal lethal dose (MLD) [11]	IC50 at 24 h [12]	other results
CN[C@@H]1C(O)[C@@H](OC2C(O)C(O[C@H]3O[C@H](CNC[C@@H](O)CO)CCC3N)[C@@H](N)C[C@H]2NC(=O)[C@@H](O)CN)OCC1(C)O (stereo partly shown) [Compound 44]	< 1 µg/mL	1 to 8 µg/mL (≈ 1.64 to 13.1 µM)	< 1 µg/mL	< 1 µg/mL	< 1 µg/mL	< 1 µg/mL	< 1 µg/mL	< 1 µg/mL	> 8 µg/mL	> 8 µg/mL	< 1 µg/mL	1 to 8 µg/mL (≈ 1.64 to 13.1 µM)	1 to 8 µg/mL (≈ 1.64 to 13.1 µM)	> 8 µg/mL	> 8 µg/mL	1 to 8 µg/mL (≈ 1.64 to 13.1 µM)	1 to 8 µg/mL (≈ 1.64 to 13.1 µM)	< 1 µg/mL	> 125 mg/kg	> 20 mM	cytotoxicity in HK-2 cells (in words) [13]: essentially non-cytotoxic; MIC [14, 32]: < 1 µg/mL; MIC [14, 33]: < 1 µg/mL; MIC [15, 34]: 1 to 8 µg/mL (≈ 1.64 to 13.1 µM); MIC [15, 35]: 1 to 8 µg/mL (≈ 1.64 to 13.1 µM); MIC [15, 36]: 1 to 8 µg/mL (≈ 1.64 to 13.1 µM)
CN[C@@H]1[C@@H](O)[C@@H](O[C@@H]2[C@@H](O)[C@H](O[C@H]3O[C@H](CNC[C@H](O)CO)CC[C@H]3N)[C@@H](N)C[C@H]2NC(=O)[C@@H](O)CN)OC[C@]1(C)O [Compound 45, (S)-3-amino-N-((1R,2S,3S,4R,5S)-5-amino-4-((2R,3R,6S)-3-amino-6-(((S)-2,3-dihydroxypropylamino)methyl)tetrahydro-2H-pyran-2-yloxy)-2-((2R,3R,4R,5R)-3,5-dihydroxy-5-methyl-4-(methylamino)tetrahydro-2H-pyran-2-yloxy)-3-hydroxycyclohexyl)-2-hydroxypropanamide]	< 1 µg/mL	1 to 8 µg/mL (≈ 1.64 to 13.1 µM)	< 1 µg/mL	< 1 µg/mL	< 1 µg/mL	< 1 µg/mL	< 1 µg/mL	< 1 µg/mL	> 8 µg/mL	> 8 µg/mL	1 to 8 µg/mL (≈ 1.64 to 13.1 µM)	1 to 8 µg/mL (≈ 1.64 to 13.1 µM)	1 to 8 µg/mL (≈ 1.64 to 13.1 µM)	> 8 µg/mL	> 8 µg/mL	1 to 8 µg/mL (≈ 1.64 to 13.1 µM)	1 to 8 µg/mL (≈ 1.64 to 13.1 µM)	< 1 µg/mL	100 mg/kg	10 mM	fold more cytotoxic than compound 44 ([13]; human, 48 h): at least 2 fold; MIC [14, 32]: < 1 µg/mL; MIC [14, 33]: < 1 µg/mL; MIC [15, 34]: 1 to 8 µg/mL (≈ 1.64 to 13.1 µM); MIC [15, 35]: 1 to 8 µg/mL (≈ 1.64 to 13.1 µM); MIC [15, 36]: 1 to 8 µg/mL (≈ 1.64 to 13.1 µM)
